# Data from patent US20100331545A1, “REGULATOR FOR SIGNALING TOLL-LIKE RECEPTOR, WHICH COMPRISES CATHEPSIN INHIBITOR AS ACTIVE INGREDIENT” (NIPPON CHEMIPHAR CO., LTD., priority 2007, published 2010).
# Columns and labels:
# TLR7, 8 = assay: Cytokine mRNA expression in R837-treated DCs derived from mouse spleen; assay type: cell-based; conditions: R837 (TLR7, 8 ligand)-treated mouse spleen DCs, total RNA 3 hours after stimulation
# Protocol: (§1) Quantitative RT-PCR was performed as described in K. Sato et al., Nat Med 12, 1410 (2006). The following primers were used.
# (§2) Spleens were excised from male mice of 8 to 10 weeks. Dendritic cells (DCs) were separated from the spleens using pan DC microbeads (Miltenyi Biotec, Bergisch Gladbach, Germany), according to the manufacturer's instructions.
# (§3) Total RNA was extracted 3 hours after stimulation.
# TLR3 = assay: Cytokine mRNA expression in poly(I:C)-treated DCs derived from mouse spleen; assay type: cell-based; conditions: poly(I:C) (TLR3 ligand)-treated mouse spleen DCs, total RNA 3 hours after stimulation
# Protocol: as §1, §2, §3
# cathepsin K−/− DCs = assay: Cytokine production in WT or cathepsin K−/− DCs in response to LPS or CpG, with chloroquine; assay type: cell-based, mouse; conditions: chloroquine added 1 hour before the stimulation; cytokines IL-12 and IL-6
# Protocol: (§4) Cells were cultured for 3-24 hours with or without PAMPs or plate-bound anti-CD3/CD28 antibodies in the presence or absence of NC-2300, and concentration of cytokines in the culture supernatant was determined by ELISA kits, according to the manufacturer's instructions.
# Cytokine production in WT or cathepsin K^−/− DCs in response to LPS or CpG was measured. Chloroquine was added 1 hour before the stimulation to suppress endosomal acidification. N.D., not detected. *P<0.05, ***P<0.001 (versus WT).
# [1] = system: rat model of adjuvant arthritis; assay: Rat adjuvant arthritis, oral NC-2300 compared with alendronate; assay type: in vivo; conditions: for bone erosion in the ankle (radiological analysis): administered daily day 0 to day 35, soft X-rays of ankle joints day 36
# Protocol: Rats were injected with complete Freund's adjuvant on day 0.
# Bone mineral density of the proximal tibia assessed by pQCT (day 36).
# Assessment for hind paws of adjuvant arthritis rats treated with NC-2300 or vehicle.
# Adjuvant arthritis in hind paw administered with NC-2300 or vehicle was evaluated.
# BM-DCs = assay: In vitro development of BM-DCs; assay type: cell-based, mouse
# Protocol: (§5) Immature DCs were generated from mouse BM, as described in K. Inaba et al., J. Exp. Med. 176,1693 (1992). In brief, BM cells were cultured with 10 ng ml^−1 murine GM-CSF or 10 ng ml^−1 murine Flt3L in RPMI 1640 medium supplemented with 10% FBS for 6 days. Loosely adherent cells were harvested by gentle pipetting and were used as BM-derived DCs. To obtain BM-derived macrophages, BM cells were cultured with 10 ng ml^−1 M-CSF in α-MEM medium supplemented with 10% FBS for 2 days, and adherent cells were used as BM-derived macrophages. For the pathogen-associated molecular pattern (PAMP) stimulation, cells were plated at 5×10^5 cells ml^−1 in 24-well plates, and cultured with 10 ng ml^−1 Lipopolysaccharide (LPS), 30 μg ml^−1 Peptidoglycan Type I (PGN), or Endotoxin-free phosphorothioate-stabilized CpG oligodeoxynucleotides (CpG ODN).
# TLR9 [2] = assay: CpG-stimulated cytokine production by BM-DCs (ELISA); assay type: cell-based, mouse; conditions: CpG (TLR9 ligand), 24 hours
# Protocol: as §5, §4
# BM-DCs were stimulated with peptidoglycan (PGN), lipopolysaccharide (LPS), and unmethylated CpG oligodeoxynucleotides (CpG) for 24 hours and the culture super-natants were subjected to ELISA. *P<0.05, ***P<0.001 (versus control).
# BM-derived macrophages = assay: Activation of BM-derived macrophages stimulated by PAMPs; assay type: cell-based, mouse
# Protocol: as §5, §4
# [3] = system: T cells stimulated with anti-CD3/CD28 antibodies; assay: IL-2 production of T cells stimulated with anti-CD3/CD28 antibodies (ELISA); assay type: cell-based, mouse
# Protocol: as §4
# [4] = system: T cells stimulated with anti-CD3/CD28 antibodies; assay: Cell proliferation assay of T cells stimulated with anti-CD3/CD28 antibodies; assay type: cell-based, mouse
# Protocol: Cell proliferation was evaluated by using a Cell Proliferation ELISA kit according to the manufacturer's protocol.
# CD40, CD80 and CD86 = assay: TLR9-mediated expression of cell surface molecules in DCs (flowcytometry); assay type: cell-based, mouse; conditions: stimulated 48 hours
# Protocol: (§6) Before staining, cells were incubated with mouse BD Fc Block to minimize nonspecific staining. The cells were then stained with fluorophore-conjugated monoclonal Abs. The following fluorophore-conjugated mAbs were used; Allophycocyanin (APC)-conjugated anti-CD3e (145-2C11), fluorescein isothiocyanate (FITC)-conjugated anti-CD4 (RM4-5), CD11c (HL3), CD40 (3/23), CD80 (16-10Al), CD86 (GL1), I-A^d (AMS-32.1), and Phycoerythrin (PE)-conjugated anti-mouse IL-17 (TC11-18H10). For intracellular cytokine staining, cells were collected and left unstimulated or were stimulated for 5 hours with PMA (40 ng ml^−1) and ion-omycin (4 μg ml^−1) in the presence of GolgiPlug at the recommended concentration. Standard intracellular cytokine staining was performed as follows; cells were first stained extracellularly with APC-conjugated anti-CD3 and FITC-conjugated anti-CD4 mAbs, then were fixed and permeabilized with Cytofix/Cytoperm solution, and finally were stained intracellularly with PE-conjugated anti-IL-17 mAb. Flowcytometric analysis was performed by FACScan with CellQuest software or FACSCanto II with Diva software.
# DCs were stimulated with CpG or LPS for 48 hours and analyzed by flowcytometry.
# [5] = system: extracellular-signal regulated kinases 1/2 (ERK 1/2); assay: ERK 1/2 phosphorylation in stimulated DCs (immunoblot); assay type: cell-based, mouse; conditions: CpG-induced
# Protocol: DCs were cultured in low serum medium (0.1% FBS) for 4 hours to reduce background and then stimulated with CpG ODN or LPS in the presence or absence of NC-2300. The stimulated cells were subjected to immunoblot analyses as described in K. Sato et al., Nat Med12, 1410 (2006), using Abs for ERK-1/2, phosphorylated ERK-1/2 and β-actin.
# TLR9 [6] = assay: Cytokine mRNA expression in CpG-treated BM-DCs (quantitative RT-PCR); assay type: cell-based, mouse
# Protocol: as §1
# The level of mRNA expression was normalized with that of β-actin expression.
# BM-DCs were generated by either GM-CSF or Flt3L. Total RNA was extracted 6 hours after CpG stimulation.
# Th17 cells = assay: Th17 cell induction by splenic DCs cocultured with CD4+ T cells (intracellular staining of IL-17); assay type: cell-based, mouse; conditions: 3 days coculture
# Protocol: as §6
# CD4-positive T cells and splenic DCs were isolated from the spleen using a magnetic sorter and anti-CD4 microbeads. These cells were stimulated with plate-bound anti-CD3 and anti-CD28 mAbs (1 μg ml^−1 each) for 3 days in the presence of 2 ng ml^−1 human TGF-β, 10 μg ml^−1 each of anti-IFN-γ and anti-IL-4 mAbs, with or without CpG ODN, LPS or PGN.
# Cathepsin K inactivation results in defective Th17 polarization in response to CpG, but not LPS or PGN were measured. CD4^+T cells and DCs were sorted from the spleen, and cocultured in the presence of CpG, LPS, or PGN for 3 days. After the culture, percentages of CD3e^+CD4^+IL-17^+ cells were analyzed by flowcytometry.
# cathepsin K = target: T1, cathepsin K (Mus musculus, UniProt P55097); assay: Enzymatic activity of cathepsin K in BM-DCs (substrate Z-Gly-Pro-Arg-MCA); assay type: cell-based; conditions: BM-DCs pre-treated 24 hours, cell lysates
# T1 construct: cell lysates were subjected to enzymatic assay; endogenous in cells; host or cells: bone marrow-derived dendritic cells (BM-DCs): cells pre-treated with NC-2300, then lysed
# T1 sequence (P55097 115-329): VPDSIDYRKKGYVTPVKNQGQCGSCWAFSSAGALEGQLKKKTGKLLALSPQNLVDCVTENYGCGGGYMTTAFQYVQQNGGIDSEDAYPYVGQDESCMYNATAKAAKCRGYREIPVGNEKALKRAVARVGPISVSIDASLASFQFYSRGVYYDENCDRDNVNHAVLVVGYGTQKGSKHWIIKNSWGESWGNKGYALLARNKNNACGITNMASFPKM
# Protocol: BM-DCs were pre-treated with or without the cathepsin K inhibitor NC-2300 for 24 hours and washed extensively with cold phosphate-buffered saline (PBS), and cell lysates were subjected to enzymatic assay. Cathepsin K activity was measured with cathepsin K specific substrate, Z-Gly-Pro-Arg-MCA (GPR).
# [7] = arthritic rats, high dose treatment, day 35
# [8] = BM-DCs, total RNA 6 hours after CpG stimulation
smiles,measurement,setting,value
"CCOC(=O)[C@H]1O[C@@H]1C(=O)N[C@@H](CC(C)C)C(=O)NCCC(C)C [E64d, reference compound]",cytokine mRNA expression (IFN-1),"TLR7, 8",suppressed
same,cytokine mRNA expression (IFN-1),TLR3,suppressed
CCN(CC)CCCC(C)Nc1ccnc2cc(Cl)ccc12 (stereo not shown) [chloroquine],cytokine induction in cathepsin K−/− DCs,cathepsin K−/− DCs,further suppressed
"NCCCC(O)(P(=O)(O)O)P(=O)(O)O [alendronate, reference compound]",bone erosion in the ankle (radiological analysis),[1]; rat adjuvant arthritis,did not efficiently suppress bone erosion
"CC(C)COC[C@H](CC(C)C)NC(=O)[C@H]1O[C@@H]1C(=O)[O-].[Na+] [NC-2300, monosodium (2S,3S)-3-[[(1S)-1-isobutoxymethyl-3-methylbutyl]carbamoyl]oxirane-2-carboxylate]",in vitro development of BM-DCs,BM-DCs,no effects
same,locomotion activity: arthritis-induced incapacitation of rearing behavior,[1]; [7],significantly ameliorated the arthritis-induced incapacitation of rearing behavior
same,locomotion activity: severity of the hind limb lameness,[1]; [7],reduced the severity of the hind limb lameness
same,onset rate of arthritis,[1]; rat adjuvant arthritis,without affecting the onset rate of arthritis
same,paw swelling in the course of arthritis,"[1]; rat adjuvant arthritis, hind paws",ameliorated paw swelling
same,inflammation when administered after the onset of disease,"[1]; rat adjuvant arthritis, administered after the onset of disease",ameliorated inflammation
same,bone erosion in the ankle (radiological analysis),[1]; rat adjuvant arthritis,markedly suppressed bone erosion
same,periarticular osteoporosis in the proximal tibia (bone mineral density),"[1]; rat adjuvant arthritis, pQCT day 36",comparable inhibitory effect
same,production of IL-12 by DCs,TLR9 [2],significantly inhibited
same,production of IL-23 by DCs,TLR9 [2],significantly inhibited
same,activation of BM-derived macrophages,BM-derived macrophages,no significant effects
same,cytokine mRNA expression (IFN-1),"TLR7, 8",suppressed
same,IL-2 production of T cells,[3],no effect
same,proliferation of T cells,[4],no effect
same,expression of CD40 in DCs,"CD40, CD80 and CD86",reduced expression
same,expression of CD80 in DCs,"CD40, CD80 and CD86",reduced expression
same,expression of CD86 in DCs,"CD40, CD80 and CD86",reduced expression
same,phosphorylation of ERK 1/2 in DCs,[5],Suppression
same,CpG-induced expression of IL-6 at the mRNA level,TLR9 [6]; [8],downregulated
same,CpG-induced expression of IL-12 at the mRNA level,TLR9 [6]; [8],downregulated
same,CpG-induced expression of IL-23 at the mRNA level,TLR9 [6]; [8],downregulated
same,IFN production by Flt3L-induced DCs in response to CpG,"TLR9 [6]; Flt3L-induced DCs, CpG",suppressed
same,cytokine mRNA expression (IFN-1),TLR3,suppressed
same,ability of DCs to induce Th17 cells,Th17 cells; DCs stimulated with CpG,markedly inhibited
same,ability of DCs to induce Th17 cells,Th17 cells; DCs stimulated with LPS,only when DCs were stimulated with CpG
same,ability of DCs to induce Th17 cells,Th17 cells; DCs stimulated with PGN,only when DCs were stimulated with CpG
same,cathepsin K activity in DCs,cathepsin K,inhibited by NC-2300 in a dose-dependent manner
